Experimental data from patent US20150315146A1, “USE OF SUBSTITUTED 1-(ARYL ETHYNYL)-, 1-(HETEROARYL ETHYNYL)-, 1-(HETEROCYCLYL ETHYNYL)- AND 1-(CYCLOALKENYLETHYNYL)-BICYCLOALKANOLS AS ACTIVE AGENTS AGAINST ABIOTIC PLANT STRESS” (BAYER CROPSCIENCE AG, priority 2012, published 2015).

Key:
Assay in all cases: Drought stress test on potted crop plants in greenhouse, spray application, efficacy from damage values
Format in all cases: in vivo
[1] = system: Triticum aestivum (TRZAS); conditions: topical, percentage reduction in the intensity of damage, read-out: EF (TRZAS) efficacy; for pest or weed control at 250 g/ha: dosage 250 g/ha
Protocol: (§1) Seeds of monocotyledonous and dicotyledonous crop plants were laid out in sandy loam in wood-fiber pots, covered with soil or sand and cultivated in a greenhouse under good growth conditions. The test plants were treated at the early leaf stage (BBCH10-BBCH13). To assure uniform water supply before commencement of stress, the potted plants were supplied with water by dam irrigation prior to substance application. The compounds according to the invention, formulated in the form of wettable powders (WP), were sprayed onto the green parts of the plants as an aqueous suspension at an equivalent water application rate of 600 l/ha with addition of 0.2% wetting agent (e.g. agrotin). Substance application was followed immediately by stress treatment of the plants. For this purpose, the pots were transferred into plastic inserts in order to prevent them from subsequently drying out too quickly. Drought stress was induced by gradual drying out under the following conditions: “Day”: 14 hours with illumination at 26° C. “Night”: 10 hours without illumination at 18° C. The duration of the respective stress phases was guided mainly by the state of the untreated, stressed control plants and thus varied from crop to crop. It was ended (by re-irrigating and transfer to a greenhouse with good growth conditions) as soon as irreversible damage was observed on the untreated, stressed control plants. In the case of dicotyledonous crops, for example oilseed rape and soya, the duration of the drought stress phase varied between 3 and 6 days, in the case of monocotyledonous crops, for example wheat, barley or corn, between 6 and 11 days. The end of the stress phase was followed by an approx. 5-7-day recovery phase, during which the plants were once again kept under good growth conditions in a greenhouse. In order to rule out any influence of the effects observed by any fungicidal or insecticidal action of the test compounds, it was additionally ensured that the tests proceeded without fungal infection or insect infestation. After the recovery phase had ended, the intensities of damage were analyzed in visual comparison to untreated, unstressed controls of the same age. The intensity of damage was first recorded as a percentage (100%=plants have died, 0%=like control plants). These values were then used to calculate the efficacy of the test compounds (=percentage reduction in the intensity of damage as a result of substance application) by the following formula: [formula] EF: efficacy (%) DVus: damage value of the untreated, stressed control DVts: damage value of the plants treated with test compound In each trial, 3 pots per crop and dosage were treated and evaluated; the resulting efficacies are thus averages. The values in tables A-1 to A-3 below are again averages from one to three independent trials. BRSNS=Brassica napus TRZAS=Triticum aestivum ZEAMX=Zea mays

[2] = system: Brassica napus (BRSNS); conditions: spray at 600 l/ha water, averages from one to three trials
Protocol: as §1

[3] = system: Zea mays (ZEAMX); conditions: percentage reduction in the intensity of damage
Protocol: as §1

| SMILES | pest or weed control at 250 g/ha [1] [%] | EF (BRSNS): efficacy = percentage reduction in the intensity of damage as a result of substance application ([2]; dosage 25 g/ha) [%] | EF (ZEAMX) efficacy ([3]; dosage 250 g/ha) [%] | EF (BRSNS): efficacy = percentage reduction in the intensity of damage as a result of substance application ([2]; dosage 250 g/ha) [%] | EF (ZEAMX) efficacy ([3]; dosage 25 g/ha) [%] | pest or weed control at 25 g/ha ([1]; dosage 25 g/ha) [%] |
| --- | --- | --- | --- | --- | --- | --- |
| COC(=O)c1ccccc1C#CC1(O)C2CC3CC(C2)CC1C3 (stereo not drawn) [I.19-30] | > 5 | >5 |  |  |  |  |
| CC12CCC(C1)C(C)(C)C2(O)C#Cc1ccccc1F (stereo not drawn) [I.1-1] | > 5 | >5 | >5 |  |  |  |
| CC12CCC(C1)C(C)(C)C2(O)C#Cc1ccccc1CC#N (stereo not drawn) [I.1-74] | > 5 |  | >5 | >5 |  |  |
| CC(=O)Oc1ccccc1C#CC1(O)C2(C)CCC(C2)C1(C)C (stereo not drawn) [I.1-79] | > 5 |  |  | >5 | >5 |  |
| COC(=O)c1ccccc1C#CC1(O)C(C)CCC2C1C2(C)C (stereo not drawn) [I.35-26] | > 5 |  | >5 |  |  |  |
| CC12CCC(C1)C(C)(C)C2(O)C#Cc1ccccc1NS(C)(=O)=O (stereo not drawn) [I.1-88] |  |  |  | >5 |  |  |
| COC(=O)c1ccccc1C#CC1(O)C2CCC(C2)C12CC2 (stereo not drawn) [I.29-26] |  |  |  |  |  | > 5 |
| COC(=O)c1ccccc1C#CC1(O)C2(C)CCC(C2)C1(C)C (stereo not drawn) [I.1-116] | > 5 | >5 |  |  | >5 |  |
| COC(=O)c1cc(C)ccc1C#CC1(O)CC2CCC1C2 (stereo not drawn) [I.21-33] | > 5 |  | >5 | >5 |  |  |
